# According to PubChem BioAssay AID2060506 (Molecular Pharmacology Branch, DTP, NCI, 2025):
# Test system: 598228-144-R-J1-PDC complex spheroid viability
# Assay: Anticancer human tumor 598228-144-R-J1-PDC patient-derived serous endometrial adenocarcinoma cell line growth inhibition [GQUAD]
# Conditions: for IC50: curve of first compound; for viability, T/C: stronger effect = lower value
# Excerpt: DNA G-quadruplex Stabilizer Agents in Combinations in Complex Spheroids
# A high-throughput screen of multi-cell type tumor spheroids was designed to identify active combinations of DNA G-quadruplex stabilizer agents and targeted small molecules. Complex spheroids include a stromal component modeled by human endothelial cells (HUVEC) and fibroblasts modeled by human mesenchymal stem cells (MSCs). The concentration ranges selected for each drug and investigational agent were based upon clinically achievable concentrations if the clinical Cmax of the agent was known.
# Compounds. The drugs and investigational agents: pidnarulex (CX-5461; NSC782164), APTO-253 (NSC789042), BRACO-19 (NSC847499), peposertib (NSC802822), ceralasertib (NSC780249), elimusertib (NSC800525), camonsertib (NSC841442), AZD-1390 (NSC803789), olaparib (NSC753686), talazoparib (NSC767125), ART-558 (NSC835418), sotorasib (NSC818433), MRTX-1133 (NSC836407), SN-38 (NSC673596), topotecan (NSC609699), etoposide (NSC141540), doxorubicin (NSC123127), gemcitabine (NSC613327), 5-fluorouracil (NSC19893), paclitaxel (NSC125973), vemurafenib (NSC761431), panobinostat (NSC761190), R-306465 (JNJ-16241199; NSC773264), adavosertib (NSC754352), TP-3654 (NSC805149), carboplatin (NSC241240), KSQ-4279 (NSC840948), and staurosporine (NSC755774) were obtained from the National Cancer Institute (NCI) Developmental Therapeutics Program Chemical Repository (34). The FDA-approved anticancer drug set is available from the NCI Developmental Therapeutics Program. […] The stock solutions were prepared in dimethyl sulfoxide (DMSO, Sigma-Aldrich, St. Louis, MO, cat. D2650) at 800-fold the tested concentration and stored at -70 degrees C prior to their use. All drugs and investigational agents were tested over a range starting from a high concentration at or near the clinical Cmax and decreasing in half-log increments. If the clinical Cmax for an agent had not been determined, the highest concentration tested was 10 microM.
# 2.3 Cell Culture. All cells were maintained in an incubator at 37 degrees C and 5% CO2 with 95% humidity. The PDC lines were cultured according to standard operating procedures established by the NCI PDMR. All PDCs were thawed and cultured in Matrigel-coated flasks prepared with a working solution of 1X Ham's F-12 nutrient mix, without supplementation (Invitrogen, cat. 11765054), 100 U/mL penicillin-streptomycin (Invitrogen, cat. 15140122), and 2.5% Matrigel (Corning Inc., cat. 354248) for the first three passages. The 857933-349-R-J2-PDC line was cultured in 6C/Colon 1B media, which includes advanced DMEM/F-12 (Thermo Fisher Scientific, cat. 12634028), 10 mM HEPES (Thermo Fisher Scientific, cat. 15630080), 1X GlutaMAX supplement (Thermo Fisher Scientific, cat. 35050061), 0.1 mg/mL primocin (InvivoGen, cat. ant-pm-2), 10% defined fetal bovine serum, heat inactivated (HyClone Laboratories Inc., cat. SH30070.03HI), 50% L-WRN conditioned media (ATCC, cat. CRL-3276), 1.25 mM N-Acetyl-L-cysteine (Sigma-Aldrich, cat. A9165), 10 mM nicotinamide (Sigma-Aldrich, cat. N0636), 1X B-27 supplement (Thermo Fisher Scientific, cat. 17504044), 1X N-2 supplement (Thermo Fisher Scientific, cat. 17502048), 10 microM Y-27632 dihydrochloride (Tocris Bioscience, cat. 1254), and 50 ng/mL human EGF recombinant protein (Thermo Fisher Scientific, cat. PHG0311). The 485176-168-R4-J1-PDC line was cultured in Panc media, which includes all 6C/Colon 1B media components plus 100 ng/mL human FGF-10 (Thermo Fisher Scientific, cat. 100-26), 500 nM SB-431542 (Selleckchem, cat. S1067), and gastrin (Tocris, cat. 3006).
# […]
# [1] = second compound 0.0316 µM, first compound 0.0316 µM
# [2] = second compound 0.0316 µM, first compound 0.1 µM
# [3] = second compound 0.0316 µM, first compound 0.316 µM
# [4] = second compound 0.0316 µM, first compound 1 µM
# [5] = second compound 0.0316 µM, first compound 3.16 µM
# [6] = second compound 0.0316 µM, first compound 10 µM
# [7] = second compound 0.1 µM, first compound 0.0316 µM
# [8] = second compound 0.1 µM, first compound 0.1 µM
# [9] = second compound 0.1 µM, first compound 0.316 µM
# [10] = second compound 0.1 µM, first compound 1 µM
# [11] = second compound 0.1 µM, first compound 3.16 µM
# [12] = second compound 0.1 µM, first compound 10 µM
# [13] = second compound 0.316 µM, first compound 0.0316 µM
# [14] = second compound 0.316 µM, first compound 0.1 µM
# [15] = second compound 0.316 µM, first compound 0.316 µM
# [16] = second compound 0.316 µM, first compound 1 µM
# [17] = second compound 0.316 µM, first compound 3.16 µM
# [18] = second compound 0.316 µM, first compound 10 µM
# [19] = second compound 1 µM, first compound 0.0316 µM
# [20] = second compound 1 µM, first compound 0.1 µM
# [21] = second compound 1 µM, first compound 0.316 µM
# [22] = second compound 1 µM, first compound 1 µM
# [23] = second compound 1 µM, first compound 3.16 µM
# [24] = second compound 1 µM, first compound 10 µM
# [25] = second compound 3.16 µM, first compound 0.0316 µM
# [26] = second compound 3.16 µM, first compound 0.1 µM
# [27] = second compound 3.16 µM, first compound 0.316 µM
# [28] = second compound 3.16 µM, first compound 1 µM
# [29] = second compound 3.16 µM, first compound 3.16 µM
# [30] = second compound 3.16 µM, first compound 10 µM
# [31] = second compound 10 µM, first compound 0.0316 µM
# [32] = second compound 10 µM, first compound 0.1 µM
# [33] = second compound 10 µM, first compound 0.316 µM
# [34] = second compound 10 µM, first compound 1 µM
# [35] = second compound 10 µM, first compound 3.16 µM
# [36] = second compound 10 µM, first compound 10 µM
# 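Further: spheroids exposed to the agents for one week before reading.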
# 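Wherever viability, T/C is given: percent of vehicle DMSO control viability so 100% = untreated growth.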
smiles,measurement,setting,value
CC1COCCN1c1cc(-c2ccnn2C)c2ccnc(-c3ccn[nH]3)c2n1 (centres undefined) + CN(C)c1ccc(Nc2c3ccc(NC(=O)CCN4CCCC4)cc3nc3cc(NC(=O)CCN4CCCC4)ccc23)cc1,IC50,second compound 0.0316 µM,87.9 nM
same,IC50,second compound 0.1 µM,88.2 nM
same,IC50,second compound 0.316 µM,93.5 nM
same,IC50,second compound 1 µM,721 nM
same,IC50,second compound 3.16 µM,114 nM
same,IC50,second compound 10 µM,58.1 nM
same,"viability, T/C",[1],86%
same,"viability, T/C",[2],45.6%
same,"viability, T/C",[3],40.3%
same,"viability, T/C",[4],43.3%
same,"viability, T/C",[5],49.2%
same,"viability, T/C",[6],45.2%
same,"viability, T/C",[7],79.7%
same,"viability, T/C",[8],46.1%
same,"viability, T/C",[9],45.5%
same,"viability, T/C",[10],40.5%
same,"viability, T/C",[11],42.4%
same,"viability, T/C",[12],43.5%
same,"viability, T/C",[13],76.3%
same,"viability, T/C",[14],51.3%
same,"viability, T/C",[15],32.7%
same,"viability, T/C",[16],43.9%
same,"viability, T/C",[17],45.5%
same,"viability, T/C",[18],34.6%
same,"viability, T/C",[19],70.6%
same,"viability, T/C",[20],63.8%
same,"viability, T/C",[21],50.5%
same,"viability, T/C",[22],50%
same,"viability, T/C",[23],45.7%
same,"viability, T/C",[24],38.9%
same,"viability, T/C",[25],74.6%
same,"viability, T/C",[26],49.6%
same,"viability, T/C",[27],40%
same,"viability, T/C",[28],40.6%
same,"viability, T/C",[29],43.4%
same,"viability, T/C",[30],25.9%
same,"viability, T/C",[31],73.5%
same,"viability, T/C",[32],29.5%
same,"viability, T/C",[33],20.5%
same,"viability, T/C",[34],29.7%
same,"viability, T/C",[35],27.6%
same,"viability, T/C",[36],14.9%
CC1COCCN1c1cc(C2(O)CC3CCC(C2)O3)c2cnn(-c3ccn[nH]3)c2n1 (centres undefined) + CN(C)c1ccc(Nc2c3ccc(NC(=O)CCN4CCCC4)cc3nc3cc(NC(=O)CCN4CCCC4)ccc23)cc1,IC50,second compound 0.0316 µM,72.8 nM
same,IC50,second compound 0.1 µM,90 nM
same,IC50,second compound 0.316 µM,130 nM
same,IC50,second compound 1 µM,162 nM
same,IC50,second compound 3.16 µM,146 nM
same,IC50,second compound 10 µM,46 nM
same,"viability, T/C",[1],58.7%
same,"viability, T/C",[2],45.8%
same,"viability, T/C",[3],34.9%
same,"viability, T/C",[4],32.9%
same,"viability, T/C",[5],25.2%
same,"viability, T/C",[6],13.9%
same,"viability, T/C",[7],60.5%
same,"viability, T/C",[8],49.3%
same,"viability, T/C",[9],34.3%
same,"viability, T/C",[10],32.7%
same,"viability, T/C",[11],28.2%
same,"viability, T/C",[12],12.7%
same,"viability, T/C",[13],74.8%
same,"viability, T/C",[14],49%
same,"viability, T/C",[15],36.5%
same,"viability, T/C",[16],37.1%
same,"viability, T/C",[17],28.6%
same,"viability, T/C",[18],15.4%
same,"viability, T/C",[19],68.5%
same,"viability, T/C",[20],44.6%
same,"viability, T/C",[21],44.3%
same,"viability, T/C",[22],35.6%
same,"viability, T/C",[23],36.1%
same,"viability, T/C",[24],12.4%
same,"viability, T/C",[25],61.8%
same,"viability, T/C",[26],55.9%
same,"viability, T/C",[27],35.1%
same,"viability, T/C",[28],39.6%
same,"viability, T/C",[29],25.6%
same,"viability, T/C",[30],9.44%
same,"viability, T/C",[31],58.5%
same,"viability, T/C",[32],34.5%
same,"viability, T/C",[33],27.6%
same,"viability, T/C",[34],23.7%
same,"viability, T/C",[35],26.6%
same,"viability, T/C",[36],3.21%
